Measurements: patent US12318365B2, “Inhibition of dipeptide repeat proteins” (ALS Therapy Development Institute, priority 2019, dated 2025)
No end group written: not given here.

Legend:
[1] = test system: NSC-34 motor-neuron-like cells; experiment: WST-1 assay (dysmetabolism) in NSC-34 cells; format: cell-based, Mouse; settings: for dose dependence of abrogation of GR15-induced dysmetabolism / dose dependence of abrogation of PR15-induced dysmetabolism: dose range of the example
Description: WST-1 Assay: The WST-1 assay is a colorimetric assay that measures cell metabolism. Cells with a healthy metabolism contain mitochondrial dehydrogenase enzymes that remove hydrogen atoms from certain molecules, resulting in a release of energy that the cell can use to perform critical reactions. In the WST-1 assay, a water soluble tetrazolium salt substrate (known as WST-1) is applied, which readily enters cells and their mitochondria upon application. If cells are viable, their mitochondrial dehydrogenase enzymes will catalyze the reaction to convert this WST-1 substrate to a colored product called Formazan. The production of this colored Formazan product by viable cells can be quantified using a spectrophotometer (plate reader). Higher absorbance readings correspond to greater metabolic activity/cell viability.
NSC-34 Cell Culture: NSC-34 cells (Cedarlane Laboratories, Burlington, ON, CA) were cultured in a complete medium consisting of High Glucose Dulbecco's Modified Eagle Medium (Millipore-Sigma, Burlington, MA, USA) supplemented with 10% US-origin fetal bovine serum (Thermo-Fisher Scientific, Cambridge, MA, USA), 1% 200 mM L-Glutamine solution (Thermo-Fisher Scientific, Cambridge, MA, USA), and 1% 10,000 U/mL Penicillin-Streptomycin solution (Thermo-Fisher Scientific, Cambridge, MA, USA). Prior to preparation of NSC-34 complete medium, L-Glutamine and Penicillin-Streptomycin solutions were aliquoted and stored at −20° C., and DMEM/High Glucose was stored at 4°. […] Prepared complete medium, DPBS, and Trypsin were always heated in a 37° C. water bath before use, and stored at 4° C. between uses. Cell counts for plating were performed using a Hausser Scientific cell counting chamber (Thermo-Fisher Scientific, Cambridge, MA, USA).
Proteins were reconstituted in sterile DMSO (Millipore-Sigma, Burlington, MA, USA) to stock concentrations of 10 mM, and stored at 4° C.
After reconstitution using the solvents specified in Table _, stocks were aliquoted to 15-20 μL and immediately stored at −20° C.
One row on the top and bottom of the plate, and two columns on either side of the plate, were left without cells and contained culture medium only to minimize experimental well volume evaporation. After plating, cells were incubated for 24 h at 37° C., 5% CO2 prior to DRP and/or PRMT inhibitor addition. At time of DRP/PRMT inhibitor addition, desired doses of DRP for challenge and inhibitor for treatment were achieved by diluting aliquots of each stock in warm culture medium. During experiments where both PRMT inhibitors and DRPs were used, PRMT inhibitors were always applied to wells first, and followed by DRP application. […] Inhibitor toxicity controls were included as wells treated with the desired doses of drug for the experiment, but no DRP. DRP toxicity controls were included as wells only treated with the doses of DRP used for challenge. […] Additional controls needed for each endpoint are specified in the “WST-1 Assay” and “LDH Assay” sections of these methods.
WST-1 Assay: Cells were plated and prepared using the steps described in the “Plating NSC-34 and Dosing with DRPs and PRMT Inhibitors” section of these methods. Other controls for this experiment included wells containing only cells in culture medium, and culture medium only. At time of testing, culture medium was removed from wells and replaced with a warmed, sterile-filtered solution consisting of DPBS with calcium and magnesium, and 4.5 g/L D-glucose (Millipore-Sigma, Burlington, MA, USA). To wells containing 200 μL DPBS-glucose solution, 20 μL/well WST-1 reagent (Millipore-Sigma, Burlington, MA) was applied and plates were then incubated at 37° C., 5% CO2 for 1 h before plates were read at 450 nm on a SpectraMax M3 Microplate Reader (Molecular Devices, San Jose, CA, USA). Experiments included three replicates per condition.

NSC-34 cells = experiment: LDH assay (cytotoxicity) in NSC-34 cells; format: cell-based; settings: for dose dependence of abrogation of GR15-induced cytotoxicity / dose dependence of abrogation of PR15-induced cytotoxicity: dose range of the example
Description: LDH Assay: The LDH assay is a colorimetric assay that measures cell toxicity and death. […] When cells lose membrane integrity, an enzyme found in living cells called lactate dehydrogenase (LDH) is released into the solution surrounding the dying cell. A form of programmed cell death, apoptosis, as well as other forms of cell death also ultimately lead to a cell's membrane being destroyed, resulting in a large release of LDH into the extracellular space. Thus, LDH is an excellent marker not only for necrosis, but for all instances of cell death. In an LDH assay, a sample of the solution surrounding the cell is isolated, and transferred to a plate containing an LDH reaction mixture. This reaction mixture contains a tetrazolium salt intermediate and other reaction constituents that, when exposed to LDH, convert the tetrazolium salt into a colored Formazan product. This Formazan product can be quantified spectrophotometrically. Greater absorbance readings correspond to more cell death.
One row on the top and bottom of the plate, and two columns on either side of the plate, were left without cells and contained culture medium only to minimize experimental well volume evaporation. After plating, cells were incubated for 24 h at 37° C., 5% CO2 prior to DRP and/or PRMT inhibitor addition. At time of DRP/PRMT inhibitor addition, desired doses of DRP for challenge and inhibitor for treatment were achieved by diluting aliquots of each stock in warm culture medium. During experiments where both PRMT inhibitors and DRPs were used, PRMT inhibitors were always applied to wells first, and followed by DRP application. […] Inhibitor toxicity controls were included as wells treated with the desired doses of drug for the experiment, but no DRP. DRP toxicity controls were included as wells only treated with the doses of DRP used for challenge. Once dosed, plates were incubated for 24 h at 37° C., 5% CO2 prior to running the WST-1 or LDH assay endpoints. Additional controls needed for each endpoint are specified in the “WST-1 Assay” and “LDH Assay” sections of these methods.
LDH Assay: Cells were plated and prepared using the steps described in the “Plating NSC-34 and Dosing with DRPs and PRMT Inhibitors” section of these methods. Other controls for this experiment included several sets of wells with only cells in culture medium (one triplicate designated for “untreated,” one triplicate designated for “lysed” positive control), and wells with culture medium only. An additional control added only to the transfer plate at time of testing was 5 μL LDH only. Testing was performed using colorimetric LDH-Cytotoxicity Assay Kit II (Abcam, Cambridge, MA, USA) per manufacturer's instructions. Final read at 450 nm was performed on a SpectraMax M3 Microplate Reader (Molecular Devices, San Jose, CA, USA). Data analysis included calculation of % LDH release using the following equation: […]
Experiments included three replicates per condition. Each experiment was repeated twice (executed three times total).
(§1) The following conditions were plated in triplicate.
Plates were incubated for 24 h at 37° C., 5% CO2. Cells were tested and data were analyzed by LDH assay.
Cells were plated in culture medium in 2 96-well plates at a density of 3.7×10^4 cells per well, and incubated overnight at 37° C., 5% CO2.
as §1
Cells were plated in culture medium in 2 96-well plates at a density of 3.7×10^4 cells per well, and incubated overnight at 37° C., 5% CO2. […]
The following conditions were plated in triplicate. […]

[2] = 3 μM GR15, 24 h, doses 0.2-20 μM

## CNCCN(C)Cc1c[nH]nc1-c1ccc(OC2CC(OCCC3CCOCC3)C2)cc1 (centres unmarked) [EPZ020411]
[1]; [2]
  dose with the greatest abrogation of GR15-induced dysmetabolism: 20 µM
[1]; 3 μM GR15, 24 h, inhibitor doses 2, 10 and 20 μM
  abrogation of GR15-induced dysmetabolism: partially abrogated
[1]; 3 μM GR15 challenge, 24 h
  dose dependence of abrogation of GR15-induced dysmetabolism: dose-dependently abrogated
[1]; 3 μM PR15, 24 h, inhibitor doses 10 and 20 μM
  abrogation of PR15-induced dysmetabolism: completely abrogated
[1]; 3 μM PR15 challenge, 24 h
  dose dependence of abrogation of PR15-induced dysmetabolism: dose-dependently abrogated
[1]; no DRP, doses 10 and 20 μM, not attributable to DMSO
  dysmetabolism independently of GR and PR challenge: did cause significant dysmetabolism
[1]; no DRP, other doses tested (0.2, 1, 2 μM)
  dysmetabolism independently of GR and PR challenge: not at other doses tested
NSC-34 cells; 3 μM GR15, 24 h, all doses but 0.2 μM (1, 2, 10, 20 μM)
  abrogation of GR15-induced cytotoxicity: partially abrogated
NSC-34 cells; 3 μM GR15, 24 h
  dose dependence of abrogation of GR15-induced cytotoxicity: dose-dependently abrogated
NSC-34 cells; [2]
  dose with the greatest effect on GR15-induced cytotoxicity: 20 µM
NSC-34 cells; 3 μM PR15, 24 h, all doses but 0.2 μM (1, 2, 10, 20 μM)
  abrogation of PR15-induced cytotoxicity: partially abrogated
NSC-34 cells; 3 μM PR15, 24 h
  dose dependence of abrogation of PR15-induced cytotoxicity: dose-dependently abrogated
NSC-34 cells; 3 μM PR15, 24 h, doses 0.2-20 μM
  dose with the greatest effect on PR15-induced cytotoxicity: 20 µM
NSC-34 cells; no DRP, doses 10 and 20 μM
  cytotoxicity independently of GR and PR challenge: did cause significant cytotoxicity

## O=C(NC[C@H](O)CN1CCc2ccccc2C1)c1ccnc(NC2CCC2)c1 [GSK591]
[1]; no DRP, doses 33, 100 and 200 μM
  dysmetabolism independently of PR15 challenge vs untreated controls: produced dysmetabolism

## CCOCC1(COCC)CCC(c2n[nH]cc2CN(C)CCNC)CC1 [GSK3368715]
[1]; 3 μM GR15 challenge, 24 h
  dose dependence of abrogation of GR15-induced dysmetabolism: dose-dependently abrogated
[1]; 3 μM GR15 challenge, 24 h, inhibitor doses 1 and 3 μM
  abrogation of GR15-induced dysmetabolism: completely abrogated
[1]; 3 μM PR15 challenge, 24 h
  dose dependence of abrogation of PR15-induced dysmetabolism: dose-dependently abrogated
[1]; 3 μM PR15 challenge, 24 h, inhibitor doses 1 and 3 μM
  abrogation of PR15-induced dysmetabolism: completely abrogated
NSC-34 cells; 3 μM GR15, 24 h, dose 1 μM
  abrogation of GR15-induced cytotoxicity: completely abrogated
NSC-34 cells; 3 μM GR15, 24 h
  dose dependence of abrogation of GR15-induced cytotoxicity: dose-dependently abrogated
NSC-34 cells; 3 μM PR15, 24 h, dose 1 μM
  abrogation of PR15-induced cytotoxicity: completely abrogated
NSC-34 cells; 3 μM PR15, 24 h, dose 3 μM
  abrogation of PR15-induced cytotoxicity: nearly completely abrogated
NSC-34 cells; 3 μM PR15, 24 h
  dose dependence of abrogation of PR15-induced cytotoxicity: dose-dependently abrogated
NSC-34 cells; no DRP, all doses (0.1-10 μM), likely solvent effects
  cytotoxicity independently of GR15 and PR15 challenge: induced low levels of cytotoxicity

## CC(C)Oc1ccc(-c2c[nH]cc2CN(C)CCO)cc1 [MS094]
[1]; 3 μM GR15 challenge, 24 h, over all tested doses of the inhibitor
  abrogation of GR15-induced dysmetabolism: No doses of negative control MS094 abrogated dysmetabolism
[1]; 3 μM PR15 challenge, 24 h, over all tested doses of the inhibitor
  abrogation of PR15-induced dysmetabolism: No doses of negative control MS094 abrogated dysmetabolism
NSC-34 cells; 3 μM GR15, 24 h, over all tested doses (0.2-60 μM)
  abrogation of GR15-induced cytotoxicity: No doses of negative control MS094 abrogated cytotoxicity
NSC-34 cells; 3 μM PR15, 24 h, over all tested doses (0.2-60 μM)
  abrogation of PR15-induced cytotoxicity: No doses of negative control MS094 abrogated cytotoxicity
NSC-34 cells; no DRP, doses 10, 30 and 60 μM, at highest 2 doses likely DMSO-related
  cytotoxicity of inhibitor alone vs untreated controls: produced cytotoxicity

## ADMe-GR15: asymmetrically dimethylated GR15, synthesized protein (Eurogentec) (GRGRGRGRGRGRGRGRGRGRGRGRGRGRGR; also: asymmetric arginine dimethylation, extent/places not given here)
[1]
  dysmetabolism compared with non-methylated GR15: consistently producing more dysmetabolism than non-methylated GR15
NSC-34 cells
  cytotoxicity compared with non-methylated GR15: consistently producing more cytotoxicity than non-methylated GR15
